Test results from patent publication US10231956B2, “3-(1H-pyrrolo[3,2-C]pyridin-2-YL)-1 H-pyrazolo[4,3-B]pyridines and therapeutic uses thereof” (Samumed, LLC, priority 2015, dated 2019).

How the values were obtained:
Type in all cases: cell-based
[1] = system: SW480 colon cancer cells; assay: Cell viability assay (CellTiter-Blue) in SW480 colon cancer cells; conditions: Homo sapiens; for EC50: 96 h, four days, CellTiter-Blue; for inhibition at 10 µM: given for EC50 >10 μM, read-out: percent inhibition at 10 μM
Experimental: Representative compounds were screened using the following assay procedure to assess the effect on cell viability as described below.
Each compound was dissolved in DMSO as a 10 mM stock and used to prepare compound source plates. Serial dilution (1:3, 8-point dose-response curves from 10 μM to 0.0045 μM) and compound transfer was performed using the ECHO 550 (Labcyte, Sunnyvale, Calif.) into 96-well clear bottom, black-walled plates (Corning-Costar).
Approximately 2×10^3 SW480 colon cancer cells were seeded into each well and allowed to incubate in the presence or absence of compound for four days at 37° C./5% CO2. Eight replicates of DMSO-treated cells served as controls and cells treated with compound were performed in duplicate.
After incubation, 20 μL of CellTiter-Blue (Promega) was added to each well allowed to incubate for approximately 3 hours. This reagent was a buffered solution which contains resazurin, metabolically active cells were able to reduce rezarurin (blue) into resorufin (pink) which was highly fluorescent. This measured fluorescence was used as a readout for cell viability.
After incubation, the plates were read at Ex 560 nm Em 590 nm (Cytation 3, BioTek). Dose-response curves were generated and EC50 concentration values were calculated using non-linear regression curve fit in the GraphPad Prism (San Diego, Calif.) or Dotmatics' Studies Software (Bishops Stortford, UK). For EC50 of >10 μM, the percent inhibition at 10 μM is provided.

[2] = system: primary human fibroblasts derived from IPF patients (LL29 cells); assay: Inhibition of fibrotic process: αSMA staining in TGF-β1 treated LL29 fibroblasts; conditions: Fibroblast; for EC50: 96 h, TGF-β1 20 ng/mL, 4 days, % cells positive for αSMA; for inhibition at 10 µM: given for EC50 >10 μM, TGF-β1, αSMA, read-out: percent inhibition at 10 μM
Text: Representative compounds were screened using primary human fibroblasts (derived from IPF patients) treated with TGF-β1 to determine their ability to inhibit the fibrotic process.
Human Fibroblast Cell Culture: Primary human fibroblasts derived from IPF patients (LL29 cells) [^1Xiaoqiu Liu, et. al., “Fibrotic Lung Fibroblasts Show Blunted Inhibition by cAMP Due to Deficient cAMP Response Element-Binding Protein Phosphorylation”, Journal of Pharmacology and Experimental Therapeutics (2005), 315(2), 678-687; ^2Watts, K. L., et. al., “RhoA signaling modulates cyclin D1 expression in human lung fibroblasts; implications for idiopathic pulmonary fibrosis”, Respiratory Research (2006), 7(1), 88] were obtained from American Type Culture Collection (ATCC) and expanded in F12 medium supplemented with 15% Fetal Bovine Serum and Penicillin/Streptomycin.
Compound Screening: Each compound was dissolved in DMSO as a 10 mM stock and used to prepare compound source plates. Serial dilution (1:2, 11-point dose-response curves from […]) and compound transfer was performed using the ECHO 550 (Labcyte, Sunnyvale, Calif.) into 384-well clear bottom assay plates (Greiner Bio-One) with appropriate DMSO backfill for a final DMSO concentration of 0.1%. LL29 cells are plated at 1,500 cells/well in 80 μL/well F12 medium supplemented with 1% Fetal Bovine Serum. One hour after addition of the cells, TGF-β1 (Peprotech; 20 ng/mL) was added to the plates to induce fibrosis (ref. 1 and 2 above). Wells treated with TGF-β1 and containing DMSO were used as controls. Cells were incubated at 37° C. and 5% CO2 for 4 days. Following incubation for 4 days, SYTOX green nucleic acid stain (Life Technologies [Thermo Fisher Scientific]) was added to the wells at a final concentration of 1 μM and incubated at room temperature for 30 min. Cells were then fixed using 4% formaldehyde (Electron Microscopy Sciences), washed 3 times with PBS followed by blocking and permeabilization using 3% Bovine Serum Albumin (BSA; Sigma) and 0.3% Triton X-100 (Sigma) in PBS. Cells were then stained with antibody specific to α-smooth muscle actin (αSMA; Abcam) (ref. 1 and 2 above) in 3% Bovine Serum Albumin (BSA; Sigma) and 0.3% Triton X-100 (Sigma) in PBS, and incubated overnight at 4° C. Cells were then washed 3 times with PBS, followed by incubation with Alexa Flor-647 conjugated secondary antibody (Life Technologies [Thermo Fisher Scientific]) and DAPI at room temperature for 1 hour. Cells were then washed 3 times with PBS and plates were sealed for imaging. αSMA staining was imaged by excitation at 630 nm and emission at 665 nm and quantified using the Compartmental Analysis program on the CellInsight CX5 (Thermo Scientific). Dead or apoptotic cells were excluded from analysis based on positive SYTOX green staining. % of total cells positive for αSMA were counted in each well and normalized to the average of 11 wells treated with TGF-β1 on the same plate using Dotmatics' Studies Software. The normalized averages (fold change over untreated) of 3 replicate wells for each compound concentration were used to create dose-responses curves and EC50 values were calculated using non-linear regression curve fit in the Dotmatics' Studies Software. For EC50 of >10 μM, the percent inhibition at 10 μM is provided.

[3] = system: IL-6; assay: IL-6 inhibition in LPS-stimulated THP-1 cells (HTRF); conditions: Homo sapiens; for EC50: LPS 500 ng/mL, 22 hours, IL6 HTRF; for inhibition at 10 µM: given for EC50 >10 μM, LPS, IL6, 10 μM, read-out: percent inhibition at 10 μM
Experimental: Human Monocyte Cell Culture: Human monocyte cell line (THP-1 cells; Catalog # TIB-202, ATCC, Manassas, Va.) were cultured in Roswell Park Memorial Institute (RPMI) 1640 Medium (Catalog #21870-100, Buffalo, N.Y.) with 1% L-glutamine, 1% HEPES, 1% Sodium Pyruvate, 2% Sodium Bicarbonate supplemented with 100 units/mL penicillin, 50 μg/mL streptomycin, 2-mercaptoethanol (0.05 mM) [basal medium] and 10% fetal bovine serum (Catalog #16140089, Life Technologies, Carlsbad, Calif.) at 37° C. and 5% CO2.
Compound Screening: THP-1 cells were cultured in basal media with 1% FBS for 24 hours before the start of the assay. Each compound was dissolved in DMSO as a 10 mM stock and used to prepare compound source plates. Serial dilution (1:3, 10-point dose-response curves starting from 1 μM) and compound transfer was performed using the ECHO 550 (Labcyte, Sunnyvale, Calif.) into 384-well white low volume assay plates (Greiner Bio-One) with appropriate DMSO backfill for a final DMSO concentration of 0.1%. THP-1 cells were plated at 5000 cells/well in the 384-well plates and incubated at 37° C. for 2 h. 500 ng/mL of LPS was added after 2 hours and cells were incubated for another 22 hours at 37° C. Plates were spun in a centrifuge for 1 minute at 10,000 rpm and a mixture of anti-IL6 XL665, and anti-IL6 Cryptate diluted in reconstitution buffer (Cisbio Inc.) was added to each well. Following incubation for 3 hrs at room temperature, Homogeneous Time-Resolved Fluorescence (HTRF) was measured using the Envision (Perkin Elmer) at 665 nm and […]. The ratio of fluorescence at 665 nm to 620 nm was used as a readout for IL6 quantification. All samples were processed in duplicate. Readings were normalized to DMSO treated cells and normalized activities were utilized for EC50 calculations using the dose-response log (inhibitor) vs. response-variable slope (four parameters) nonlinear regression feature available in GraphPad Prism 5.0 (or Dotmatics). For EC50 of >10 μM, the percent inhibition at 10 μM is provided.

| EC50 [1] | EC50 [3] | Compound | EC50 [2] | inhibition at 10 µM [3] | inhibition at 10 µM [1] | inhibition at 10 µM [2] |
| --- | --- | --- | --- | --- | --- | --- |
| 5220 nM | 724 nM | Fc1ccc(-c2nccc3[nH]c(-c4n[nH]c5ccc(-c6cncc(OC7CCNCC7)c6)nc45)cc23)cc1 [Compound 528, 3-(4-(4-Fluorophenyl)-1H-pyrrolo[3,2-c]pyridin-2-yl)-5-(5-(piperidin-4-yloxy)pyridin-3-yl)-1H-pyrazolo[4,3-b]pyridine] | 1440 nM | – | – | – |
| 1420 nM | 542 nM | CS(=O)(=O)NCc1cc(F)cc(-c2nccc3[nH]c(-c4n[nH]c5ccc(-c6cncc(NC(=O)C7CCCCC7)c6)nc45)cc23)c1 [Compound 499, N-(5-(3-(4-(3-Fluoro-5-(methylsulfonamidomethyl)phenyl)-1H-pyrrolo[3,2-c]pyridin-2-yl)-1H-pyrazolo[4,3-b]pyridin-5-yl)pyridin-3-yl)cyclohexanecarboxamide] | 958 nM | – | – | – |
| 483 nM | 104 nM | CN(C)c1cncc(-c2ccc3[nH]nc(-c4cc5c(-c6cccc(F)c6)nccc5[nH]4)c3n2)c1 [Compound 7, 5-(3-(4-(3-Fluorophenyl)-1H-pyrrolo[3,2-c]pyridin-2-yl)-1H-pyrazolo[4,3-b]pyridin-5-yl)-N,N-dimethylpyridin-3-amine] | > 10000 nM | – | – | 0% |
| 1040 nM | 45 nM | Cc1ccncc1-c1ccc2[nH]nc(-c3cc4c(-c5cc(F)cc(CNS(C)(=O)=O)c5)nccc4[nH]3)c2n1 [Compound 481, N-(3-Fluoro-5-(2-(5-(4-methylpyridin-3-yl)-1H-pyrazolo[4,3-b]pyridin-3-yl)-1H-pyrrolo[3,2-c]pyridin-4-yl)benzyl)methanesulfonamide] | 311 nM | – | – | – |
| 1140 nM | 9360 nM | Fc1cccc(-c2nccc3[nH]c(-c4n[nH]c5ccc(-c6cncc(CN7CCCCC7)c6)nc45)cc23)c1 [Compound 15, 3-(4-(3-Fluorophenyl)-1H-pyrrolo[3,2-c]pyridin-2-yl)-5-(5-(piperidin-1-ylmethyl)pyridin-3-yl)-1H-pyrazolo[4,3-b]pyridine] | 554 nM | – | – | – |
| 921 nM | 108 nM | CC(C)CC(=O)Nc1cncc(-c2ccc3[nH]nc(-c4cc5c(-c6cc(F)cc(CNS(C)(=O)=O)c6)nccc5[nH]4)c3n2)c1 [Compound 478, N-(5-(3-(4-(3-Fluoro-5-(methylsulfonamidomethyl)phenyl)-1H-pyrrolo[3,2-c]pyridin-2-yl)-1H-pyrazolo[4,3-b]pyridin-5-yl)pyridin-3-yl)-3-methylbutanamide] | 5700 nM | – | – | – |

The next lines start with the molecule.

| Compound | EC50 [1] | EC50 [3] | EC50 [2] | inhibition at 10 µM [3] | inhibition at 10 µM [1] | inhibition at 10 µM [2] |
| --- | --- | --- | --- | --- | --- | --- |
| c1csc(-c2nccc3[nH]c(-c4n[nH]c5ccc(-c6ccncc6)nc45)cc23)c1 [Compound 354, 5-(Pyridin-4-yl)-3-(4-(thiophen-2-yl)-1H-pyrrolo[3,2-c]pyridin-2-yl)-1H-pyrazolo[4,3-b]pyridine] | 2820 nM | > 10000 nM | 2720 nM | 43.5% | – | – |
| Fc1ccccc1-c1nccc2[nH]c(-c3n[nH]c4ccc(-c5cncc(CNCc6ccccc6)c5)nc34)cc12 [Compound 80, N-Benzyl-1-(5-(3-(4-(2-fluorophenyl)-1H-pyrrolo[3,2-c]pyridin-2-yl)-1H-pyrazolo[4,3-b]pyridin-5-yl)pyridin-3-yl)methanamine] | 2140 nM | 9100 nM | 1670 nM | – | – | – |
| Fc1ccccc1-c1nccc2[nH]c(-c3n[nH]c4ccc(-c5cn[nH]c5)nc34)cc12 [Compound 539, 3-(4-(2-Fluorophenyl)-1H-pyrrolo[3,2-c]pyridin-2-yl)-5-(1H-pyrazol-4-yl)-1H-pyrazolo[4,3-b]pyridine] | 1270 nM | 103 nM | 33 nM | – | – | – |
| CN1CCN(c2nccc3[nH]c(-c4n[nH]c5ccc(-c6cncc(NC(=O)c7ccccc7)c6)nc45)cc23)CC1 [Compound 235, N-(5-(3-(4-(4-Methylpiperazin-1l-yl)-1H-pyrrolo[3,2-c]pyridin-2-yl)-1H-pyrazolo[4,3-b]pyridin-5-yl)pyridin-3-yl)benzamide] | > 10000 nM | 1000 nM | 2250 nM | – | 29.1% | – |
| CN1CCN(c2nccc3[nH]c(-c4n[nH]c5ccc(-c6cncc(NC(=O)CC7CCNCC7)c6)nc45)cc23)CC1 [Compound 641, N-(5-(3-(4-(4-Methylpiperazin-1l-yl)-1H-pyrrolo[3,2-c]pyridin-2-yl)-1H-pyrazolo[4,3-b]pyridin-5-yl)pyridin-3-yl)-2-(piperidin-4-yl)acetamide] | > 10000 nM | > 10000 nM | 5000 nM | 20.6% | 16.3% | – |
| Fc1cccc(-c2nccc3[nH]c(-c4n[nH]c5ccc(-c6cncc(OCc7ccccc7)c6)nc45)cc23)c1 [Compound 518, 5-(5-(Benzyloxy)pyridin-3-yl)-3-(4-(3-fluorophenyl)-1H-pyrrolo[3,2-c]pyridin-2-yl)-1H-pyrazolo[4,3-b]pyridine] | 1360 nM | > 10000 nM | 1040 nM | 27.5% | – | – |
| CCNCc1cncc(-c2ccc3[nH]nc(-c4cc5cnccc5[nH]4)c3n2)c1 [Compound 258, N-((5-(3-(1H-Pyrrolo[3,2-c]pyridin-2-yl)-1H-pyrazolo[4,3-b]pyridin-5-yl)pyridin-3-yl)methyl)ethanamine] | 1660 nM | 462 nM | > 10000 nM | – | – | 22.6% |
